These results are taken from PubChem BioAssay (NCI).

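Method: 48-hour compound exposure of cells in 96-well plates, five concentrations, linear interpolation of endpoints. The concentration for 50% growth inhibition is given as GI50. TGI denotes the concentration required for complete inhibition of growth.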

Assay in all cases: NCI tumour cell line growth inhibition, 48 h
Assay [1] relates to A498 renal.
For assay [2], the system named is A549 NSCLC.
The subject of assay [3] is DU-145 prostate.
In assay [4] the test system is HOP-62 NSCLC.
Assay [5] relates to NCI/ADR-RES ovarian.
In assay [6] the test system is OVCAR-4 ovarian.
For assay [7], the system named is SK-OV-3 ovarian.
Assay [8] concerns SR leukemia.
For assay [9], the system named is UACC-257 melanoma.
Assay [10] has as its system UACC-62 melanoma.

Consider `COc1ccc2cc(-c3cc4c(oc3=O)-c3ccccc3OC4O)c(=O)oc2c1` (stereo unspecified), for which the GI50 was 17.3 µM in assay [1]; 14.5 µM in assay [2]; 14.3 µM in [3]; 20.3 µM in assay [4]; 17.7 µM in assay [5]; 12.3 µM in [6]. Further, the GI50 was 17.1 µM in [7], 79.7 µM in assay [8], 16.2 µM in [9] and 16.2 µM in assay [10]. Moreover, the TGI in [1] is 33.5 µM; in [2] it was 28.2 µM; in [3] it was 27.4 µM; in [4], 35.4 µM; in assay [5], 31.7 µM; in assay [6] it was 28.9 µM. Also, the TGI in assay [7] was 32.3 µM; in assay [8], over 100 µM; in assay [9] it was 32.3 µM; in assay [10], 30.4 µM.

As for `O=C1NC(=O)C(=C/C=C/c2ccccc2)C(=O)N1`, the GI50 in assay [1] is 20 µM; in assay [2], 7.06 µM; in assay [3], 2.13 µM; in [4], 12 µM; in assay [5] it was 3.78 µM; in assay [6], 5.37 µM. Further, the GI50 is 16.5 µM in [7], 0.716 µM in assay [8], 2.24 µM in [9] and 1.88 µM in assay [10]. Further, the TGI was 34.6 µM in assay [1]; 28 µM in assay [2]; 4.87 µM in assay [3]; 25.5 µM in assay [4]; 16.7 µM in assay [5]; 17.2 µM in [6]. Moreover, the TGI was 30.5 µM in assay [7], over 100 µM in assay [8], 7.34 µM in assay [9] and 4.5 µM in [10].

For the compound `C[C@]12CC[C@H](O)C[C@H]1CC[C@@H]1[C@@H]2CC[C@]2(C)[C@@H](C3=CC(=O)OC3)[C@@H](O)C[C@]12O`, the TGI in assay [1] was 9.07 µM; in [2], 1.65 µM; in assay [3] it was 2.71 µM; in [4], 2.48 µM; in assay [5], 3.9 µM; in assay [6], 3.16 µM. The TGI in assay [7] came out at 6.73 µM; in [8] it was 3.63 µM; in assay [9] it was 5.46 µM; in [10], 6.82 µM.

`CC(=O)c1cc(C(=O)c2ccc3c(c2)Sc2ccccc2N3)c2c(C)cc(C)cn12`: the GI50 is 0.0765 µM in [1]; 0.337 µM in assay [2]; 0.395 µM in assay [3]; 0.394 µM in assay [4]; 0.264 µM in assay [5]; 2.2 µM in [6]. In addition, the GI50 was 0.342 µM in assay [7], 0.302 µM in assay [8], 2.04 µM in assay [9] and 0.254 µM in assay [10]. Besides, the TGI in [1] is 0.686 µM; in assay [2] it was over 55.6 µM; in assay [3], over 47.3 µM; in assay [4], over 63 µM; in assay [5], 8.16 µM; in assay [6], over 100 µM. Moreover, the TGI in assay [8], in assay [9] and in assay [10] was over 100 µM throughout.

Regarding `c1cc2[nH]ncc2cc1-c1nc2ccc3[nH]ncc3c2c2c1CCCC2`, the GI50 was 0.273 µM in [1]; 1.78 µM in assay [2]; 2.27 µM in assay [3]; 1.39 µM in assay [4]; 2.08 µM in assay [5]; 1.97 µM in [6]. For the same compound, the GI50 was 0.781 µM in assay [7], 0.338 µM in assay [8], 1.67 µM in assay [9] and 0.425 µM in [10]. The TGI was 1.82 µM in [1]; over 31.4 µM in assay [2]; 11.2 µM in assay [3]; 9.11 µM in assay [4]; 16.4 µM in [5]; 14.4 µM in [6]. Moreover, the values for the TGI in assay [9] and in [10] were 8.21 µM and 3.53 µM, respectively.

As for `Cc1ccccc1-n1ncc(C(=O)c2ccccc2)c1N`, the GI50 in assay [1], in [2], in assay [3], in assay [4], in assay [5] and in assay [6] was over 25 µM in each case. Moreover, the GI50 in [7], in assay [8], in [9] and in [10] was over 25 µM in each case. Further, the TGI in assay [1], in [2], in assay [3], in assay [4], in [5] and in assay [6] was over 25 µM in each case. The TGI in [7], in [8], in [9] and in assay [10] was over 25 µM throughout.

Consider `O=C1Nc2c(C(F)(F)F)cccc2[C@@]1(c1ccc(O)cc1)c1ccc(OC(F)(F)F)cc1`, for which the GI50 in assay [1] is under 0.0148 µM; in assay [2], 0.0186 µM; in [3], 0.0303 µM; in [4], 0.0226 µM; in assay [5], under 0.01 µM; in [6], under 0.01 µM. The GI50 in [7] was 0.0415 µM; in [8] it was 10.5 µM; in assay [9] it was 0.938 µM; in assay [10], 0.0213 µM. The TGI is 0.0337 µM in [1]; 0.0414 µM in [2]; 0.0866 µM in assay [3]; 0.0661 µM in assay [4]; under 0.0105 µM in assay [5]; under 0.01 µM in [6]. The TGI in assay [7] came out at 0.38 µM; in [8], 29.5 µM; in assay [9], 20.1 µM; in assay [10], 0.071 µM.

In the case of `CC(C)(C)C(=O)OCOP(=O)(OCOC(=O)C(C)(C)C)C1CC(O)N(O)C1=O` (stereo unspecified), the GI50 in [1] is 4.36 µM; in [2], 30.7 µM; in [3] it was 6.7 µM; in [4] it was 5.28 µM; in assay [5] it was 4.39 µM; in assay [6] it was 17.5 µM. Besides, the GI50 in [7] was 25.8 µM; in assay [8], 4.2 µM; in assay [9] it was over 100 µM; in [10] it was 2.37 µM. The TGI was 47.3 µM in assay [1]; over 100 µM in assay [2]; over 100 µM in assay [3]; 26.8 µM in [4]; over 100 µM in assay [5]; over 100 µM in assay [6]. For the same compound, the TGI was over 100 µM in assay [7], 75.2 µM in [8], over 100 µM in assay [9] and 7.4 µM in assay [10].

For `O=C(c1ccccc1)c1ccc(Oc2ccc([N+](=O)[O-])cc2[N+](=O)[O-])cc1`, the GI50 in [1] was 11 µM; in assay [2] it was 19.7 µM; in assay [3], 3.33 µM; in assay [4] it was 7.81 µM; in assay [5] it was 4.12 µM; in assay [6] it was 4.18 µM. Further, the GI50 was 4.09 µM in assay [7], 2.6 µM in assay [8], 7.05 µM in assay [9] and 4.1 µM in assay [10]. Also, the TGI in [1] is 24.8 µM; in assay [2] it was 59.7 µM; in assay [3] it was 12.8 µM; in [4], 43.1 µM; in assay [5], 65.3 µM; in [6] it was 87.4 µM. Further, the TGI came out at 29.4 µM in [7], 7.79 µM in [8], 29.2 µM in assay [9] and 32.2 µM in assay [10].

As for `COC(=O)[C@]12CC[C@@H](C)[C@H](C)[C@@H]1C1=CC[C@@H]3[C@@]4(C)C(C=O)=C[C@@](C)(COC(C)=O)C4=CC[C@@]3(C)[C@]1(C)CC2`, the GI50 is 10.8 µM in [1]; 3.82 µM in [2]; 5.24 µM in assay [3]; 11.7 µM in [4]; 5.35 µM in [5]; 4.06 µM in assay [6]. For the same compound, the GI50 is 18 µM in [7], 2.22 µM in assay [8], 4.19 µM in assay [9] and 4.11 µM in [10]. Also, the TGI in [1] came to 24 µM; in [2], 16.2 µM; in assay [3], 19.4 µM; in [4], 29.3 µM; in [5], 18.9 µM; in [6], 18.3 µM. Also, the TGI in assay [7] was determined as 50.4 µM; in assay [8], 7.83 µM; in [9] it was 17.2 µM; in [10], 18.1 µM.

Take `Cc1cc(O)ccc1C1=NN(c2ccc(S(C)(=O)=O)cc2)C(=O)CC1`: the GI50 in assay [1] was 2.78 µM; in assay [2] it was 6.2 µM; in [3], 24.7 µM; in assay [4], 9.07 µM; in assay [5], 3.26 µM; in assay [6], 76.9 µM. Besides, the GI50 in [7] was 9.77 µM; in assay [8], 3.39 µM; in assay [9], 5.65 µM; in assay [10], 4 µM. In addition, the TGI in [1] is 45.4 µM; in assay [2], over 100 µM; in assay [3] it was over 100 µM; in [4] it was over 100 µM; in [5], over 100 µM; in [6] it was over 100 µM. Further, the TGI in assay [7], in [8], in [9] and in [10] was over 100 µM each time.

As for `O=C1c2nsnc2C(=O)c2c(F)c(F)c(F)c(F)c21`, the GI50 in assay [1] was 1.6 µM; in assay [2] it was 2.15 µM; in [3] it was 1.32 µM; in assay [4], 0.913 µM; in assay [5], 1.63 µM; in assay [7], 2.04 µM. The GI50 was 0.0528 µM in assay [8], 1.61 µM in assay [9] and 1.2 µM in assay [10]. Further, the TGI in assay [1] is 3.57 µM; in assay [2] it was 4.85 µM; in [3], 2.63 µM; in assay [4], 2.24 µM; in assay [5], 4.33 µM; in assay [7], 3.7 µM. Moreover, the TGI in assay [9] was found to be 3 µM; in assay [10] it was 2.5 µM.

For the compound `Cc1ccc(-c2cc3c(SCC(=O)Nc4cc(C(F)(F)F)ccc4Cl)nccn3n2)cc1`, the GI50 in assay [1] is over 100 µM; in [3], over 100 µM; in assay [4], 58.2 µM; in assay [5] it was over 100 µM; in assay [6], 2.86 µM; in assay [7], 69.4 µM. Also, the GI50 in assay [8] and in [10] was over 100 µM throughout. The TGI in assay [1], in [3], in [4], in assay [5], in assay [6] and in assay [7] was over 100 µM each time. The TGI in [8] and in assay [10] was over 100 µM in each case.

`Nc1nc2c(s1)CCc1c-2c(Br)n(Cc2ccccc2)c1Br`: the GI50 in assay [1] was 17.3 µM; in assay [2], 17.2 µM; in assay [3], 16.1 µM; in [4], 18 µM; in assay [5] it was 23.7 µM; in assay [7], 23.6 µM. The results for the GI50 in assay [8], in assay [9] and in [10] were 3.41 µM, 12.1 µM and 10.4 µM, respectively. The TGI is 33.8 µM in assay [1]; over 100 µM in [2]; 37.3 µM in [3]; 33.6 µM in assay [4]; 87.7 µM in assay [5]; 53.7 µM in assay [7]. Also, the TGI in assay [8] was over 100 µM; in assay [9] it was 25.6 µM; in [10], 24.7 µM.

As for `COc1ccc2c(c1)[n+](=O)c(C(=O)c1ccco1)c(C(F)(F)F)n2[O-]`, the GI50 in assay [1] is 3.98 µM; in assay [2] it was 2.56 µM; in [3], 2.12 µM; in [4], 2.86 µM; in [5], 2 µM; in assay [7], 3.15 µM. Besides, the GI50 is 0.346 µM in [8], 1.44 µM in assay [9] and 1.75 µM in assay [10]. Besides, the TGI in assay [1] was found to be 16 µM; in assay [2], 16.6 µM; in assay [3], 14.5 µM; in assay [4], 21.6 µM; in assay [5], 6.57 µM; in assay [7], 25.9 µM. In addition, the TGI was over 100 µM in [8], 4.83 µM in [9] and 4.91 µM in [10].
